From US10646484B2, “Methods to treat opioid use disorder” (Indivior UK Limited, priority 2017, dated 2020)

System: opioid-dependent subjects
Assay: Concentration-QT analysis pooled across clinical studies
Procedure: A concentration QT analysis was performed for the clinical studies conducted with Formulation D. Matching buprenorphine and norbuprenorphine plasma concentrations and 12-lead electrocardiograms (ECGs) were pooled across clinical studies conducted with Formulation D in opioid-dependent subjects. Concentration-QT models were developed to describe the effects of buprenorphine and norbuprenorphine on corrected QT (QTc) interval, after accounting for the effect of relevant concomitant medications and illicit drug use on heart rate and/or QT in opioid-dependent subjects. Data from the following studies were included in the analysis:
Stable doses of SUBUTEX® tablets ranged between 8 and 24 mg depending on the dose cohort.
Twenty subjects received SUBOXONE® film alone.
Subjects were inducted using SUBOXONE® film for 3 days, followed by 4- to 11-day SUBOXONE® film dose adjustment at doses ranging from 8 to 24 mg QD. SUBOXONE® film was tapered in subjects after amendment of study protocol (Day 1: 6 mg, Days 2 and 3: 4 mg, Days 4 and 5: 2 mg).
The following covariates were evaluated on alpha given their potential to affect heart rate: withdrawal symptoms (as measured by Clinical Opiate Withdrawal Scale (COWS)), clonidine and methocarbamol (used to treat withdrawal symptoms), cocaine, phencyclidine, cannabinoids, barbiturates, and methamphetamines (illicit drugs), amphetamines (taken for therapeutic, e.g., attention-deficit/hyperactivity disorder or illicit use), as well as albuterol (known to increase heart rate).
The following covariates were evaluated on QTcAbs: sex, age, opioids known to have an effect on QTc (methadone, oxycodone), opioids that may have an effect on QTc (hydrocodone, morphine, hydromorphone, oxymorphone, heroin, codeine), or opioids (as a general class, with exact type not recorded in CRF), benzodiazepines, barbiturates, triplicate vs single ECG readings, central vs non-centrally read ECGs, and Holter vs non-Holter. Covariates were selected using individual steps of backward elimination. The concentration-related slope was added and the model was refined. Bootstrap and visual predictive checks were conducted to evaluate model performance.
In addition, the bias-corrected two-sided 90% confidence interval of the Delta QTc distribution was determined using the boot package in R (boot( ) function), where an additional nonparametric bootstrap was performed. If the upper limit of the 90% confidence interval was <10 msec, then an effect of Formulation D on QTc was to be ruled out.

[1] = concentration-QT model covariate

SMILES	change in QTc associated with concomitant or illicit drug (covariate on QTc) (human, in vivo)	change in QTc associated with concomitant or illicit drug (covariate on QTc) [1]
OCCOCCN1CCN(C(c2ccccc2)c2ccc(Cl)cc2)CC1 (stereo not drawn) [hydroxyzine]	+1.7 msec	–
COc1ccc2c3c1O[C@H]1[C@@H](O)C=C[C@H]4[C@@H](C2)N(C)CC[C@@]341 [codeine]	–	+1.3 msec
COc1ccc2c3c1O[C@H]1C(=O)CC[C@@]4(O)[C@@H](C2)N(C)CC[C@]314 [oxycodone]	–	-1.5 ms
CCC(=O)C(CC(C)N(C)C)(c1ccccc1)c1ccccc1 (stereo not drawn) [methadone]	–	+6.1 msec
c1ccc(C2(N3CCCCC3)CCCCC2)cc1 [phencyclidine]	–	+3.4 msec
COC(=O)[C@H]1[C@@H](OC(=O)c2ccccc2)C[C@@H]2CC[C@H]1N2C [cocaine]	–	+1.7 msec
